From patent US11602567B2, “Methods for modulating RNA splicing” (PTC Therapeutics, Inc., priority 2015, dated 2023)

How the values were obtained:
Test in all cases: Endpoint RT-PCR analysis of alternatively spliced mRNAs in cultured cells
Format in all cases: cell-based, human
STRN3 exon 8 = conditions: STRN3 exon 8, sequence AAGAgtaagt; GM03813 cells, 24 hours; without compound 10
Experimental: (§1) Endpoint RT-PCR Analysis of Alternatively Spliced mRNAs in Cultured Cells GM03813 cells derived from a patient with SMA type I (Coriell Institute) were plated at 5,000 cells/well in 200 μl DMEM with 10% FBS in 96-well plates, and incubated for 6 hours in a cell culture incubator (37° C., 5% CO2, 100% relative humidity). Cells were then treated with Compound 702 at different concentrations (in 0.5% DMSO) in duplicate for 24 hours. After removal of the supernatant, cells were lysed in Cells-To-Ct lysis buffer (Life Technologies, Inc.). Reverse transcription was performed using 5 μl of cell lysate and the iScript RT enzyme kit (Bio-Rad Laboratories, Inc). PCR was performed using 5 μl of cDNA and Platinum Taq HiFi DNA Polymerase (Life Technologies, Inc.) under the following PCR conditions: Step 1: 94° C. (2 min), Step 2: 94° C. (30 sec), Step 3: 55° C. (30 sec), Step 4: 68° C. (1 min), then repeat Steps 2 to 4 for 33 cycles, then hold at 4° C. PCR products were separated on 2% agarose E-gels, stained with ethidium bromide and visualized using a gel imager (UVP). [table]

COL1A1 exon 30 = conditions: COL1A1 exon 30, sequence AAGAgtaagt; GM03813 cells, 24 hours; without compound 60
Experimental: as §1

PRKDC exon 11 = conditions: PRKDC exon 11, sequence AGGAgtatgt; GM03813 cells, 24 hours; without compound 100
Experimental: as §1

GALC exon 5 = conditions: GALC exon 5, sequence TGGAgttagt; GM03813 cells, 24 hours; without compound 90
Experimental: as §1

FN1 exon 35 = conditions: FN1 exon 35, sequence GAGAgtaagt; GM03813 cells, 24 hours; without compound 100
Experimental: as §1

SMN2 exon 5 = conditions: SMN2 exon 5, sequence ACCAgtaagt; GM03813 cells, 24 hours; without compound 50
Experimental: as §1

COL1A2 exon 21 = conditions: COL1A2 exon 21, sequence GAGAgtaggt; GM03813 cells, 24 hours; without compound 100
Experimental: as §1

COL1A1 exon 46 = conditions: COL1A1 exon 46, sequence CCGAgtaagt; GM03813 cells, 24 hours; without compound 100
Experimental: as §1

GGCT exon 2 = conditions: GGCT exon 2, sequence ATGAgtaggt; GM03813 cells, 24 hours; without compound 40
Experimental: as §1

COL3A1 exon 46 = conditions: COL3A1 exon 46, sequence CAGAgtaagt; GM03813 cells, 24 hours; without compound 100
Experimental: as §1

PARP1 exon 22 = conditions: PARP1 exon 22, sequence ACGAgtatcc; GM03813 cells, 24 hours; without compound 100
Experimental: as §1

COL3A1 exon 10 = conditions: COL3A1 exon 10, sequence CAGAgtaagt; GM03813 cells, 24 hours; without compound 100
Experimental: as §1

VPS29 exon 2 = conditions: VPS29 exon 2, sequence CAGAgtaagt; GM03813 cells, 24 hours; without compound 40
Experimental: as §1

[1] = test system: FOXM1 exon 7A […]C (34 nucleotides); conditions: sequence ATGAgtaagt, GM03813 cells, 24 hours, without compound 0
Experimental: as §1

LARP7 exon 2 = conditions: LARP7 exon 2, sequence AAGAgtaaga; GM03813 cells, 24 hours; without compound 10
Experimental: as §1

COL1A1 exon 11 = conditions: COL1A1 exon 11, sequence CAGAgtgagt; GM03813 cells, 24 hours; without compound 100
Experimental: as §1

DIAPH3 exon 11 = conditions: DIAPH3 exon 11, sequence TTGAatatcc; GM03813 cells, 24 hours; without compound 100
Experimental: as §1

COL1A1 exon 5 = conditions: COL1A1 exon 5, sequence AGGAgtaagt; GM03813 cells, 24 hours; without compound 0
Experimental: as §1

ERGIC3 exon 8 = conditions: ERGIC3 exon 8, sequence GAGAgtaagt; GM03813 cells, 24 hours; without compound 0
Experimental: as §1

FADS2 exon 6 = conditions: FADS2 exon 6, sequence CTGAgtaagt; GM03813 cells, 24 hours; without compound 100
Experimental: as §1

APLP2 exon 7 = conditions: APLP2 exon 7, sequence ATGAgtaagt; GM03813 cells, 24 hours; without compound 10
Experimental: as §1

COL1A2 exon 22 = conditions: COL1A2 exon 22, sequence CAGAgtaagt; GM03813 cells, 24 hours; without compound 100
Experimental: as §1

COL1A1 exon 32 = conditions: COL1A1 exon 32, sequence CAGAgtaagt; GM03813 cells, 24 hours; without compound 90
Experimental: as §1

MADD exon 21 = conditions: MADD exon 21, sequence CAGAgtaagg; GM03813 cells, 24 hours; without compound 0
Experimental: as §1

COL5A2 exon 35 = conditions: COL5A2 exon 35, sequence AAGAgtaagt; GM03813 cells, 24 hours; without compound 100
Experimental: as §1

PRKDC exon 51 = conditions: PRKDC exon 51, sequence GCGAgtacgt; GM03813 cells, 24 hours; without compound 100
Experimental: as §1

COL5A2 exon 32 = conditions: COL5A2 exon 32, sequence TAGAgtaagt; GM03813 cells, 24 hours; without compound 100
Experimental: as §1

[2] = test system: FOXM1 exon 7A (114 nucleotides); conditions: sequence ATCAgtaagt, GM03813 cells, 24 hours, without compound 0
Experimental: as §1

COL1A2 exon 30 = conditions: COL1A2 exon 30, sequence AAGAgtaagt; GM03813 cells, 24 hours; without compound 100
Experimental: as §1

ARMCX6 exon 3 = conditions: ARMCX6 exon 3, sequence TAGAgtatga; GM03813 cells, 24 hours; without compound 0
Experimental: as §1

COL5A2 exon 34 = conditions: COL5A2 exon 34, sequence CAGAgtaagt; GM03813 cells, 24 hours; without compound 100
Experimental: as §1

LAMA2 exon 5 = conditions: LAMA2 exon 5, sequence AAGAgtaagt; GM03813 cells, 24 hours; without compound 100
Experimental: as §1

COL5A2 exon 49 = conditions: COL5A2 exon 49, sequence AAGAgtaagt; GM03813 cells, 24 hours; without compound 90
Experimental: as §1

RCC 1 exon 4 = conditions: RCC 1 exon 4, sequence AGAGgtaaga; GM03813 cells, 24 hours; without compound 90
Experimental: as §1

SMN2 exon 7 = conditions: SMN2 exon 7, sequence AGGAgtaagt; GM03813 cells, 24 hours; % inclusion of exon without compound 40
Experimental: as §1

LARP7 exon 1 = conditions: LARP7 exon 1, sequence CGGAgtaagt; GM03813 cells, 24 hours; without compound 0
Experimental: as §1

COL5A2 exon 13 = conditions: COL5A2 exon 13, sequence CCGAgtaagt; GM03813 cells, 24 hours; without compound 100
Experimental: as §1

CCN1CCC(c2cc(C)c3nc(-c4cc5c(C)nc(C)cn5n4)cc(=O)n3c2)CC1 [Compound 702]
% Inclusion of Exon with Compound (STRN3 exon 8): 100%
% Inclusion of Exon with Compound (COL1A1 exon 30): 90%
% Inclusion of Exon with Compound (PRKDC exon 11): no change
% Inclusion of Exon with Compound (GALC exon 5): no change
% Inclusion of Exon with Compound (FN1 exon 35): no change
% Inclusion of Exon with Compound (SMN2 exon 5): no change
% Inclusion of Exon with Compound (COL1A2 exon 21): no change
% Inclusion of Exon with Compound (COL1A1 exon 46): no change
% Inclusion of Exon with Compound (GGCT exon 2): 95%
% Inclusion of Exon with Compound (COL3A1 exon 46): no change
% Inclusion of Exon with Compound (PARP1 exon 22): no change
% Inclusion of Exon with Compound (COL3A1 exon 10): no change
% Inclusion of Exon with Compound (VPS29 exon 2): 100%
% Inclusion of Exon with Compound [1]: 90%
% Inclusion of Exon with Compound (LARP7 exon 2): 40%
% Inclusion of Exon with Compound (COL1A1 exon 11): no change
% Inclusion of Exon with Compound (DIAPH3 exon 11): no change
% Inclusion of Exon with Compound (COL1A1 exon 5): no change
% Inclusion of Exon with Compound (ERGIC3 exon 8): 10%
% Inclusion of Exon with Compound (FADS2 exon 6): no change
% Inclusion of Exon with Compound (APLP2 exon 7): 30%
% Inclusion of Exon with Compound (COL1A2 exon 22): no change
% Inclusion of Exon with Compound (COL1A1 exon 32): no change
% Inclusion of Exon with Compound (MADD exon 21): 5%
% Inclusion of Exon with Compound (COL5A2 exon 35): no change
% Inclusion of Exon with Compound (PRKDC exon 51): no change
% Inclusion of Exon with Compound (COL5A2 exon 32): no change
% Inclusion of Exon with Compound [2]: 10%
% Inclusion of Exon with Compound (COL1A2 exon 30): no change
% Inclusion of Exon with Compound (ARMCX6 exon 3): no change
% Inclusion of Exon with Compound (COL5A2 exon 34): no change
% Inclusion of Exon with Compound (LAMA2 exon 5): no change
% Inclusion of Exon with Compound (COL5A2 exon 49): no change
% Inclusion of Exon with Compound (RCC 1 exon 4): no change
% Inclusion of Exon with Compound (SMN2 exon 7): 100%
% Inclusion of Exon with Compound (LARP7 exon 1): 10%
% Inclusion of Exon with Compound (COL5A2 exon 13): no change
